Reference: US20030219837A1, “Integrin ligand” (priority 2002, published 2003)

B1: alpha6p: 70-kDa, naturally occurring truncated form of the alpha6 integrin (protein)
chain: VNSLPEVLPILNSNEAKTVQTDVHFLKEGCGDDNVCNSNLKLEYKFGTREGNQDKFSYLPIQKGIPELVLKDQKDIALEITVTNSPSDPRNPRKDGDDAHEAKLIATFPDTLTYSAYRELRAFPEKQLSCVANQNGSQADCELGNPFKRNSSVTFYLILSTTEVTFDTTDLDINLKLETTSNQDNLAPITAKAKVVIELLLSVSGVAKPSQVYFGGTVVGEQAMKSEDEVGSLIEYEFRVINLGKPLKNLGTATLNIQWPKEISNGKWLLYLMKVESKGLEQIVCEPHNEINYLKLKESHNSRKKRELPEKQIDDSRKFSLFPERKYQTLNCSVNVRCVNIRCPLRGLDSKASLVLRSRLWNSTFLEEYSKLNYLDILLRASIDVTAAAQNIKLPHAGTQVRVTVFPSKTVAQYSGVAWWIILLAVLAGILMLALLVFLLWKCGFFKRSRYDDSIPRYHAVRIRKEEREIKDEKHMDNLEKKQWITKWNENESYS

Columns and labels:
alpha6p = test: Abundance of alpha6p on DU145H cells with exogenous agents; type: cell-based, human; conditions: data not shown
[1] = system: alpha6p integrin protein levels; test: Calcium-induced terminal differentiation assay, Western blot with AA6A; type: cell-based; conditions: 291 nontransformed mouse keratinocytes, 24 h, dose-dependent (0.04 to 1.4 mM calcium)
Protocol: Cell Lines. All human cell lines were incubated at 37° C. in a humidified atmosphere of 95% air and 5% CO2. Cell lines DU145H, HaCaT, and PC3-N were grown in Iscove's modified Dulbecco's medium (Invitrogen Corporation, Carlsbad, Calif.; formerly Life Technologies, Inc.) plus 10% fetal bovine serum. Cell lines MCF-7, PC3-ATCC, LnCap, and H69 were grown in Dulbecco's modified Eagle's medium (Invitrogen Corporation, Carlsbad, Calif.; formerly Life Technologies, Inc.) plus 10% fetal bovine serum. SW480 cells were grown in super medium (Dulbecco's modified Eagle's medium plus 5% nonessential amino acids, 5% L-glutamine, 5% sodium pyruvate, 10% fetal bovine serum). Normal prostate cells, PrEC, were grown in PrEGM bullet kit medium (Clonetics, San Diego, Calif.). […]
Mouse 291 normal keratinocyte terminal differentiation can be induced by calcium. […] The presence of alpha6 and alpha6p integrins in normal 291 mouse keratinocytes was determined using whole cell lysates followed by Western blot analysis using anti-alpha6 integrin antibody, AA6A (FIG. 10A). […] The alpha6 and alpha6p integrin protein bands were quantitated using Scion Image (Cress (2000) BioTechniques 29:776-781), and the results were graphed (FIG. 10B). […]

DU145H cells = test: Surface half-life by biotinylation strategy; type: cell-based, human
Protocol: Surface Biotinylation of Cell Lines. Previous published protocols (Isberg and Leong (1990) Cell 60:861-871; Einheber et al. (1993) J. Cell Biol. 123:1223-1236) were slightly modified. Briefly, cells were grown to confluency in 100-mm tissue culture dishes and washed three times with HEPES buffer (20 mM HEPES, 130 mM NaCl, 5 mM KCl, 0.8 mM MgCl2, 1.0 mM CaCl2, pH 7.45). The cells were then incubated with 2 ml of HEPES buffer supplemented with sulfosuccinimidyl hexanoate-conjugated biotin (500 μg/ml; Pierce), which is impermeable to cell membranes (Staros (1982) Biochemistry 21:3950-3), to label cell surface proteins for 30 min at 4° C. The cells were washed three times and lysed in cold radioimmune precipitation buffer plus protease inhibitors (phenylmethylsulfonyl fluoride, 2 mM; leupeptin and aprotinin, 1 μg/ml). The lysate was briefly sonicated on ice before centrifugation at 10,000 rpm for 10 min, and the supernatant was collected for immunoprecipitations.
To determine if the novel alpha6p variant was a degradation product of the alpha6 integrin that would be rapidly cleared from the surface, the surface half-life of both integrins was examined using a biotinylation strategy. […] After 24, 48, or 72 h, the integrins were immunoprecipitated using the GoH3 antibody and analyzed under non-reducing conditions (FIG. 8, panel A).

Molecule	influence on abundance of alpha6p (alpha6p)	other results
CCCCCCCCCCCCCC(=O)O[C@@H]1[C@@H](C)[C@@]2(O)[C@@H](C=C(CO)C[C@]3(O)C(=O)C(C)=C[C@@H]23)[C@@H]2C(C)(C)[C@]12OC(C)=O [12-O-tetradecanoylphorbol-13-acetate]	not influenced	
CNC(=O)[C@H](Cc1ccccc1)NC(=O)[C@H](CC(C)C)[C@H](CSc1cccs1)C(=O)NO [BB94]	not influenced	
[Ca+2].[Cl-].[Cl-] [CaCl2]	not influenced	
[Ca+2] [Calcium, calcium]		increase of alpha6p integrin protein levels [1]: 3 fold
CC(=O)N[C@@H](CC(C)C)C(=O)N[C@@H](CC(C)C)C(=O)N[C@H](C=O)CCCNC(=N)N [leupeptin]	not influenced	
aprotinin	not influenced	
ecotin: exogenous protease inhibitor	not influenced	
kallikrein	not influenced	
B1		surface half-life relative to full-length alpha6 integrin (DU145H cells; surface of DU145H cells): ~3 times; half-life on the cell surface (DU145H cells; surface of DU145H cells, 24, 48, 72 h after biotinylation): ~72 h
